Marks after values point to notes of the source that are not given here.
Columns and labels:
[1] = system: spontaneously hypertensive rats (SHR); assay: Evaluation of blood pressure reduction (single administration, systolic blood pressure of the caudal artery); type: in vivo, rat; details: male 15 week-old SHR, fasted overnight, solution in physiological saline (0.2% actives in total), 1 mL/kg, mean ± SD, n=5; for Systolic blood pressure (changing ratio %) after 10 minutes: 10 minutes after administration vs prior to administration; for Systolic blood pressure (changing ratio %) After 1 hour: 1 hour after administration vs prior to administration
Method: Prior to initiation of the experimental studies in order to accustom the test animals to sphygmomanometric operation the blood pressure of each test animal—male, 15 week-old, spontaneously hypertensive rats (“SHR”)—was preliminarily measured for 7 successive days using a commercially available noninvasive sphygmomanometer for rats (manufactured by Softlon Co., Ltd.).
Rats were all bred in a breeding room in a rat region under uniform conditions at a room temperature at 25±1° C., humidity of 55±10% RH and illumination for 12 hours (from 7:00 am to 7:00 pm).
In the control group (Control Plot, see Table 1), physiological saline was employed. As a material to be administered, a solution obtained by dissolving 0.2 wt. % (which will hereinafter be simply described as %) of caffeic acid in physiological saline, a solution obtained by dissolving 0.2% of a chlorogenic acid in physiological saline, a solution obtained by dissolving 0.2% of ferulic acid in physiological saline and a solution obtained by dissolving 0.1% of caffeic acid and 0.1% of ferulic acid in physiological saline were used in Test plot 1, Test plot 2, Test plot 3 and Test plot 4, respectively. In Test plot 5, a solution obtained by dissolving 0.1% of a chlorogenic acid and 0.1% of ferulic acid in physiological saline was used, while in Test plot 6, a solution obtained by dissolving 0.05% of caffeic acid, 0.05% of a chlorogenic acid and 0.1% of ferulic acid in physiological saline was used. Each of them was administered from the common carotid artery. The dosage was 1 mL/kg.
SHRs were fasted overnight and employed for each test group, each group consisted of 5 rats. Systolic blood pressures of the caudal artery prior to intravenous administration, and 10 minutes and 1 hour each after administration were measured.
In Table 1, the changing ratio (%) in systolic blood pressure for each experimental group is reported by its mean value (%) and by its standard deviation. The Student's t-test was used to indicate the statistical significance of the experimental data. A significance level of 5% or less is indicated as “*” in Table 1, and significance level of 0.1% or less as “***”.
A lowering ratio of the systolic blood pressure of each of 10 minutes and 1 hour after administration to the systolic blood pressure prior to administration is shown in Table 1.

[2] = target: angiotensin I converting enzyme (ACE) (Homo sapiens, UniProt P12821); details: polyphenols of unripe Rosaceae fruit juice; JP Kokai Hei 8-259453; cited from earlier work
angiotensin I converting enzyme (ACE), sequence (P12821 30-1306, species assumed): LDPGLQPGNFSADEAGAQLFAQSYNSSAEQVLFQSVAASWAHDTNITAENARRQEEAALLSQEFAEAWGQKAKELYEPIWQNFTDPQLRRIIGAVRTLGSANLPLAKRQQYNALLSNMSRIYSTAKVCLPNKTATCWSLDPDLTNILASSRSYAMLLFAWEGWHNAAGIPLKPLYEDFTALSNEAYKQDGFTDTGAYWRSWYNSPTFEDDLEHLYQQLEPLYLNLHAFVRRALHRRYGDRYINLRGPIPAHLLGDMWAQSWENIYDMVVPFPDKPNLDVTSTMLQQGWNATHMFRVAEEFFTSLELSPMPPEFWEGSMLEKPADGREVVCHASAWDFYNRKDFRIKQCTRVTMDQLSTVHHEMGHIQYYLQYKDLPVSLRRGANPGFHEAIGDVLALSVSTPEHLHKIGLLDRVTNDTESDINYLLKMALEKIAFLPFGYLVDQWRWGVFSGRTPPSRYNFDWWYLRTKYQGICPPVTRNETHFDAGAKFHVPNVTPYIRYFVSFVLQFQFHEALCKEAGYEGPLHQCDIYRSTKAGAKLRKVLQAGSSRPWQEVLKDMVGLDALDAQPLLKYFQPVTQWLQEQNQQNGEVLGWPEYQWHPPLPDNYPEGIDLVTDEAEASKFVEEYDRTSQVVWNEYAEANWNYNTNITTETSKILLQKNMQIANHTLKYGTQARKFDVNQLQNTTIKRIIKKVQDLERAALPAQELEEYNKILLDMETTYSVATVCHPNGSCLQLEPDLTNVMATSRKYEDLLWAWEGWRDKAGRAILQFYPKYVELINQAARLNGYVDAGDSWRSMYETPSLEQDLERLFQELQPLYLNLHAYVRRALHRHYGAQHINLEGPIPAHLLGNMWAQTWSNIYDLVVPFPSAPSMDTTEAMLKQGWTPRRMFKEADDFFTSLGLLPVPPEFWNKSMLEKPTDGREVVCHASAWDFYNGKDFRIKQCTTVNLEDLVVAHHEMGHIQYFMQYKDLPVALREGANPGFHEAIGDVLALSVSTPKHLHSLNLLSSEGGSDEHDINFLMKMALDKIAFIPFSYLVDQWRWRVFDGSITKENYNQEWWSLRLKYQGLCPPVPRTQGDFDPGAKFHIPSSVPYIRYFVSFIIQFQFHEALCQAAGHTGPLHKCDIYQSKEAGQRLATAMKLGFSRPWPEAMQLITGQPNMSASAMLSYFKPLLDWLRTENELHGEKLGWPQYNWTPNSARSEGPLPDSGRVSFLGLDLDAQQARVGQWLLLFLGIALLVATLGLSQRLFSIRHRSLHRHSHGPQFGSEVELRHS

calcium = details: from spike of Schizonepeta tenuifolia Briq.; JP Kokai Hei 4-243822; cited from earlier work

| SMILES | Systolic blood pressure (changing ratio %) after 10 minutes [1] | Systolic blood pressure (changing ratio %) After 1 hour [1] | angiotensin I converting enzyme (ACE) inhibitory action (in words) [2] | calcium antagonism (in words) (calcium) |
| --- | --- | --- | --- | --- |
| COc1cc(/C=C/C(=O)O)ccc1O [Ferulic acid (FA), ferulic acid] | −7.8 ± 0.8*** % | 0.7 ± 2.6% | – | – |
| O=C(/C=C/c1ccc(O)c(O)c1)O[C@@H]1C[C@](O)(C(=O)O)C[C@@H](O)[C@H]1O [Chlorogenic acid (CHA), chlorogenic acid] | −3.2 ± 2.6% | −7.2 ± 1.7* % | inhibitory action | – |
| O=C(O)/C=C/c1ccc(O)c(O)c1 [Caffeic acid (CA), caffeic acid] | −4.1 ± 2.1% | −10.2 ± 0.5*** % | inhibitory action | exerts calcium antagonism |
